The source of these data is patent publication US20110237508A1, “Peptide Formulations and Uses Thereof” (RIJKSUNIVERSITEIT GRONINGEN, priority 2008, published 2011).

Some results are limits rather than exact numbers.

Data set [1] is described as follows: Precipitation of oxytocin in citrate buffer with Ca2+. Format: physicochemical. The note with it: 100 mM Ca2+. Here is the method: (§1) Citrate buffer (CB) was used at concentrations of 5, 10 or 50 mM. […] Samples of each formulation were stored for 4 weeks at 4° C. (control) or 55° C. (test). Thereafter, all samples were stored under cooled conditions (2-8° C.) before analysis by RP-HPLC and HP-SEC. Effects on stability were determined by measuring the recovery of oxytocin and the percentage of oxytocin-monomers. The results are presented in FIGS. 4A and 4B (citrate buffer with Ca^2+), 5A and 5B (citrate buffer with Mg^2+) and 6A and 6B (citrate buffer with Zn^2+).

A short description of data set [2]: Oxytocin monomer recovery by HP-SEC after 4 weeks storage at 4 or 55° C. It counts as physicochemical. The following applies: pH 4.5, 4 weeks. Here is the method: (§2) As shown herein below, the stabilizing effect of the combination of a buffer and at least one source of divalent metal ions at a concentration of at least 2 mM in an aqueous oxytocin formulation was determined by measuring the recovery of oxytocin (remaining oxytocin as % of initial amount), the amount of oxytocin-monomers (% of total remaining oxytocin) and/or the level of aggregation (aggregated oxytocin as % of total remaining oxytocin) upon prolonged storage at elevated (e.g. 55° C.) temperatures. These parameters can be assessed by using any method for analysis deemed suitable by a person skilled in the art. Examples of suitable methods for analysis include, but are not limited to, reversed-phase high-performance liquid chromatography (RP-HPLC) and high-performance size exclusion chromatography (HP-SEC). Thus, suitable concentrations of divalent metal ions to achieve the stabilizing effect at elevated temperatures can be determined by those skilled in the art. They may vary, e.g. depending on the composition of the formulation or its intended application. In one embodiment, a formulation comprises oxytocin or vasopressin and at least 2 mM, preferably at least 5, more preferably at least 10 mM divalent metal ions and a buffer. In another embodiment, a pH-buffered formulation comprises divalent metal ions in a concentration of up to 150 mM, preferably up to 100 mM, more preferably up to 50 mM. For example, a formulation comprises divalent metal ions in a concentration between 5 and 150 mM, preferably between 10 and 100 mM, more preferably between 10 and 50 mM. In one embodiment, between 2 and 150 mM divalent metal ions, preferably 5-100 mM, such as 10, 20, 25, 30, 40 or 50 mM, and a buffer are used to stabilize an aqueous peptide formulation. In another embodiment, a divalent metal ion concentration in the range from 20 to 100 mM is used, like 30-100 mM, 40-80 mM or 50-70 mM. Other suitable ranges include between 2 and 50 mM, between 30 and 60 mM and between 40 and 70 mM divalent metal ions.
Divalent metal ions (Ca^2+, Mg^2+ and Zn^2+) were added as metal chloride salts (MC12) to a non-buffered formulation comprising oxytocin and pure water (W). The divalent metal ions were used at concentrations of 0, 2, 5, 10 and 50 mM. […] Effects on stability were determined by measuring the recovery of oxytocin and the percentage of oxytocin-monomers.
Samples of each formulation were stored for 4 weeks at 4° C. […] Effects on stability were determined by measuring the recovery of oxytocin and the percentage of oxytocin-monomers.
The thermal stability of oxytocin in the presence of combinations of a buffer and monovalent metal ions was investigated. […] Effects on stability were determined by measuring the recovery of oxytocin and the percentage of oxytocin-monomers. […]
Background: In gel filtration, larger molecules generally elute earlier.

The conditions of data set [3]: cited from earlier work.
Data set [4] can be described thus: Long-term stability study at 40° C., oxytocin recovery by RP-HPLC. It counts as physicochemical. The note with it: 10 mM citrate buffer and 50 mM Ca2+, pH 4.5, 6 months at 40° C. Here is the method: (§3) A long-term stability study was performed to assess the thermal stability of pH-buffered oxytocin formulations comprising divalent metal ions over prolonged periods. Citrate buffer (CB) was added in concentrations of 5, 10 or 50 mM to formulations comprising 0.1 mg/ml oxytocin and 0, 10 or 50 mM Ca^2+ (CaCl2). […] Samples of each formulation were stored for 1, 2, 3 or 6 months at 40° C. Thereafter, all samples were stored under cooled conditions (2-8° C.) before analysis by RP-HPLC and HP-SEC. Effects on stability were determined by measuring the recovery of oxytocin and the percentage of oxytocin-monomers.

Data set [5] can be described thus: Oxytocin recovery by RP-HPLC after 4 weeks storage at 4 or 55° C. Format: physicochemical. The following applies: pH 4.5, 4 weeks. Here is the method: as §2, with “ions. […]” for “ions.”
Samples of each formulation were stored for 4 weeks at 4° C. (control) or 55° C. (test). Thereafter, all samples were stored under cooled conditions (2-8° C.) before analysis by RP-HPLC and HP-SEC. Effects on stability were determined by measuring the recovery of oxytocin and the percentage of oxytocin-monomers.
The thermal stability of oxytocin in the presence of combinations of a buffer and monovalent metal ions was investigated. Citrate buffer (CB), acetate buffer (AC) or aspartate buffer (AP) was used at a concentration of 10 mM. Monovalent metal ions Na^+ and K^+ were added in the form of their chloride salt (NaCl and KCl) and used in final concentrations of 10 and 20 mM. […] Samples of each formulation were stored for 4 weeks at 4° C. (control) or 55° C. (test). Thereafter, all samples were stored under cooled conditions (2-8° C.) before analysis by RP-HPLC and HP-SEC. Effects on stability were determined by measuring the recovery of oxytocin and the percentage of oxytocin-monomers.
as §1, with “concentrations of 5, 10 or 50 mM. Divalent metal ions (Ca^2+, Mg^2+ and Zn^2+) were added in the form of their chloride salt (CaCl2, MgCl2 and ZnCl2) and used in final concentrations of 0, 2, 5, 10” for “concentrations of 5, 10”
Divalent metal ions (Ca^2+, Mg^2+ and Zn^2+) were added in the form of their chloride salt (CaCl2, MgCl2 and ZnCl2) and used in final concentrations of 0, 2, 5, 10 or 50 mM. […] Samples of each formulation were stored for 4 weeks at 4° C. […]

A short description of data set [6]: Long-term stability study at 40° C., oxytocin monomers by HP-SEC. It counts as physicochemical. The following applies: 10 mM citrate buffer and 50 mM Ca2+, pH 4.5, 6 months at 40° C. Here is the method: as §3
The conditions of data set [7]: oral tablets, simulated tropical conditions; cited from earlier work.

With `CC[C@H](C)[C@@H]1NC(=O)[C@H](Cc2ccc(O)cc2)NC(=O)[C@@H](N)CSSC[C@@H](C(=O)N2CCC[C@H]2C(=O)N[C@@H](CC(C)C)C(=O)NCC(N)=O)NC(=O)[C@H](CC(N)=O)NC(=O)[C@H](CCC(N)=O)NC1=O` [oxytocin], in data set [1], the precipitation result is recorded as “precipitates were observed”. Also, the “remaining oxytocin in monomeric form” value in data set [2] (10 mM acetate buffer & 10 mM Na+, 55° C.) is “around 30%”. The “percentage of oxytocin monomers” value in data set [2] (citrate buffer with Ca2+, 55° C.) is “up to 80%”. The “percentage of remaining oxytocin monomers” value in data set [2] (citrate buffer with Zn2+, 55° C.) is “up to 90%”. Also, in data set [2] (non-buffered pure water with divalent metal ions, 4 or 55° C.), the remaining oxytocin-monomers result is “loss of monomers was only prevented at 4 °C in the presence of Ca^2+ or Zn^2+”. Moreover, the “effect on oxytocin stability” value in data set [3] (dissolved in commercially obtainable lactated Ringer's solution) was “no effect on oxytocin stability at all”. Besides, in data set [3] (in Ringer's, room temperature, 0.08 IU/ml), the stability of oxytocin entry is “already compromised after 30 days”. Further, the “original amount of oxytocin preserved” value in data set [4] is given as “around 70%”. In addition, in data set [5] (10 mM acetate buffer & 10 mM Na+), the “original quantity of oxytocin recovered” value is at most 35%. In data set [5] (10 mM acetate buffer with 50 mM Ca2+, 50 mM Mg2+ or 50 mM Zn2+), the “remaining percentage of oxytocin” value is “Small increases”. Further, the stabilizing effect entry in data set [5] (10 mM aspartate buffer with Ca2+ or Mg2+) is “only smaller effects”; in data set [5] (10 mM aspartate buffer with Zn2+ (2-50 mM)), “strong concentration-dependent stabilizing effect”. Moreover, in data set [5] (10 mM aspartate buffer with Zn2+), the oxytocin remained entry is on record as “Up to 75%”. For the same compound, in data set [5] (10 mM citrate, acetate or aspartate buffer with 10 or 20 mM Na+ or K+), the “thermal stability of oxytocin” value is listed as “minor effects”. For the same compound, the oxytocin stability result is given as “only increased together with 50 mM Ca^2+” in data set [5] (50 mM citrate buffer with Ca2+); “only increased at 50 mM Mg^2+” in data set [5] (50 mM citrate buffer with Mg2+); “only increased at 50 mM Zn^2+” in data set [5] (50 mM citrate buffer with Zn2+); “Largest increases in stability” in data set [5] (5 or 10 mM citrate buffer and 50 mM Ca2+); “largest increases in stability” in data set [5] (5 or 10 mM citrate buffer and 50 mM Mg2+); “large increases in stability” in data set [5] (citrate buffer with 2 or 5 mM Zn2+). The oxytocin stability result in data set [5] (citrate, acetate or aspartate buffer, no divalent metal ions) is “small increase”. Further, in data set [6], the “portion remained in monomeric form” value is “more than 80%”. In data set [7], the stability of tablets result is “not stable”.
As for `C[C@@H](CO)NC(=O)[C@@H]1C=C2c3cccc4[nH]cc(c34)C[C@H]2N(C)C1` [ergometrine], the stability of tablets result in data set [7] is recorded as “not stable”.
For `CC[C@H](C)[C@@H]1NC(=O)[C@H](Cc2ccc(O)cc2)NC(=O)CCSSC[C@@H](C(=O)N2CCC[C@H]2C(=O)N[C@@H](CC(C)C)C(=O)NCC(N)=O)NC(=O)[C@H](CC(N)=O)NC(=O)[C@H](CCC(N)=O)NC1=O` [desamino-oxytocin], the stability of tablets result in data set [7] is reported as “not stable”.
